Experimental data published in ChEMBL document CHEMBL3621100, “Discovery of Novel Class I Histone Deacetylase Inhibitors with Promising in Vitro and in Vivo Antitumor Activities” (J Med Chem, 2015).

Experiments:
[1] = Antiproliferative activity against human HLF cells after 72 hrs by CCK8 assay; format: cell-based
DU-145 = assay: Antiproliferative activity against human DU145 cells after 72 hrs by CCK8 assay; format: functional
[2] = Antiproliferative activity against human WI38 cells after 72 hrs by CCK8 assay; format: cell-based, WI-38
[3] = Antiproliferative activity against human MOLT4 cells after 72 hrs by CCK8 assay; format: functional, MOLT-4
U-937 = assay: Antiproliferative activity against human U937 cells after 72 hrs by CCK8 assay; format: functional
Histone deacetylase 4 = Histone deacetylase 4 (Homo sapiens, UniProt P56524); assay: Inhibition of recombinant human HDAC4 after 60 mins by fluorescence assay
Sequence of Histone deacetylase 4 (P56524 whole entry): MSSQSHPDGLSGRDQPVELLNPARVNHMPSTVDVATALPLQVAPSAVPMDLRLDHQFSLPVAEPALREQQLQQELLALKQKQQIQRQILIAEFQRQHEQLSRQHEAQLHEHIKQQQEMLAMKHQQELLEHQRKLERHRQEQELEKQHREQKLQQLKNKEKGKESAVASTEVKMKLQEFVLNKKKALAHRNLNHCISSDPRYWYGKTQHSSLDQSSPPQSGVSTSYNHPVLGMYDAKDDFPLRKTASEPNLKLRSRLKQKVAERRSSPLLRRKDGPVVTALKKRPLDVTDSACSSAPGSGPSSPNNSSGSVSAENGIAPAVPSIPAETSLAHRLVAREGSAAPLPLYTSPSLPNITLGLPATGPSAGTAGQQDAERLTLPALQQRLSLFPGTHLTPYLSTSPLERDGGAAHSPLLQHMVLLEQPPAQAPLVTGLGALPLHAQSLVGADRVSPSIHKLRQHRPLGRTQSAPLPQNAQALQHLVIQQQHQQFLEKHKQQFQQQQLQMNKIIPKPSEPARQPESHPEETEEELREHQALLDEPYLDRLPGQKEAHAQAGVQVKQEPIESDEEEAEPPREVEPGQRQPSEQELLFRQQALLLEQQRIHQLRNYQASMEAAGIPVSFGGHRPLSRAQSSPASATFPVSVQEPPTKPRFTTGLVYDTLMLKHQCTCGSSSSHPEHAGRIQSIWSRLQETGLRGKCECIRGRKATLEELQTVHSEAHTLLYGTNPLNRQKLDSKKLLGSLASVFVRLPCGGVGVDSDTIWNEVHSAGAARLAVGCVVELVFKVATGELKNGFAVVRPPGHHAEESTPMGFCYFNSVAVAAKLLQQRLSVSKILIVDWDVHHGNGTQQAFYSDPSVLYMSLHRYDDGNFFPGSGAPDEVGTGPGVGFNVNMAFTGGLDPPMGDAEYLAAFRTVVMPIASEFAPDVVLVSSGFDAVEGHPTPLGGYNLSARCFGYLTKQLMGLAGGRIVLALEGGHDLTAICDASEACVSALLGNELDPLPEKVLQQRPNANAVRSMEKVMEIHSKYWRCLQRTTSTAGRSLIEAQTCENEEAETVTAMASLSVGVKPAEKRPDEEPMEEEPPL

[4] = target: T1, Polyamine deacetylase HDAC10 (Homo sapiens, UniProt Q969S8); assay: Inhibition of recombinant human HDAC10 after 60 mins by fluorescence assay
T1 sequence (Q969S8 whole entry): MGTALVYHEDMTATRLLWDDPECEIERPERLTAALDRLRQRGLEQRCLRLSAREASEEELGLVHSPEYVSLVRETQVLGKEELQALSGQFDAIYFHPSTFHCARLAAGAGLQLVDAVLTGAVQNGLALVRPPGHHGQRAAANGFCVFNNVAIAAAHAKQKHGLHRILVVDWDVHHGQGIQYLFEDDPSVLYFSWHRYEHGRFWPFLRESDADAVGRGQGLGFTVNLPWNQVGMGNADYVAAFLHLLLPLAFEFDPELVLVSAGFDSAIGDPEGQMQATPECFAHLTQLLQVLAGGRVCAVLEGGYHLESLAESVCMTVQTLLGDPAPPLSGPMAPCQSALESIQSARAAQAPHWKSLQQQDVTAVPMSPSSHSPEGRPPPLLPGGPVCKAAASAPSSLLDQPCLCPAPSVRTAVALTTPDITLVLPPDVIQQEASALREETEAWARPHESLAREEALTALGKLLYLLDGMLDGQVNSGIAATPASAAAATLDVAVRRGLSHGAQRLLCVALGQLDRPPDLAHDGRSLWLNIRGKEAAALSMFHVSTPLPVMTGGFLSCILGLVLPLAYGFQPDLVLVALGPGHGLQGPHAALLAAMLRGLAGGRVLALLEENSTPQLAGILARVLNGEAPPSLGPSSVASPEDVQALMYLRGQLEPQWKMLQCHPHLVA

Histone deacetylase 2 = Histone deacetylase 2 (Homo sapiens, UniProt Q92769); assay: Inhibition of recombinant human HDAC2 after 60 mins by fluorescence assay
Sequence of Histone deacetylase 2 (Q92769 whole entry): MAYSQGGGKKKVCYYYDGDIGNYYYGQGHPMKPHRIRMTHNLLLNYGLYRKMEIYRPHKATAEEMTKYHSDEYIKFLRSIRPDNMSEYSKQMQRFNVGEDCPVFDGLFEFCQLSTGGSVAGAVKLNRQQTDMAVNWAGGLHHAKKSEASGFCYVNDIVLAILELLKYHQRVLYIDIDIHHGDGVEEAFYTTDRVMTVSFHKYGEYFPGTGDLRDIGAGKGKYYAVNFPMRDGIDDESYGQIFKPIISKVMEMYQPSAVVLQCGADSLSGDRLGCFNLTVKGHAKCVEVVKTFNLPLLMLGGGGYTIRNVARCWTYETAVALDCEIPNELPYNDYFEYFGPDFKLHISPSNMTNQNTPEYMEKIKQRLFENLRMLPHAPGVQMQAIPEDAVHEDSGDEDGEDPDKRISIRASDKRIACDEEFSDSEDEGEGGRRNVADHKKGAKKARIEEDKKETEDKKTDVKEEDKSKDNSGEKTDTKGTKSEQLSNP

Histone deacetylase 11 = target: T2, Histone deacetylase 11 (Homo sapiens, UniProt Q96DB2); assay: Inhibition of recombinant human HDAC11 after 60 mins by fluorescence assay
T2 sequence (Q96DB2 whole entry): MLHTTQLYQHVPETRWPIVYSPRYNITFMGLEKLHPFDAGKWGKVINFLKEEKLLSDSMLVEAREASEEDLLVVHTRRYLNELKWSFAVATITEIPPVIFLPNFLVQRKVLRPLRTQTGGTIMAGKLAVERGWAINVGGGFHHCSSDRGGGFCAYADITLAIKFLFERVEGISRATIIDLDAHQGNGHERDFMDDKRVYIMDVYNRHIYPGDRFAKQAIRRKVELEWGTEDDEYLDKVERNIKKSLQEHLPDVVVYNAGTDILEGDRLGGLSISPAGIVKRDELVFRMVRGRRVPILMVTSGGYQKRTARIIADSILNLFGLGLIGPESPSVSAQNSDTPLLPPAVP

Histone deacetylase 9 = Histone deacetylase 9 (Homo sapiens, UniProt Q9UKV0); assay: Inhibition of recombinant human HDAC9 after 60 mins by fluorescence assay
Sequence of Histone deacetylase 9 (Q9UKV0 whole entry): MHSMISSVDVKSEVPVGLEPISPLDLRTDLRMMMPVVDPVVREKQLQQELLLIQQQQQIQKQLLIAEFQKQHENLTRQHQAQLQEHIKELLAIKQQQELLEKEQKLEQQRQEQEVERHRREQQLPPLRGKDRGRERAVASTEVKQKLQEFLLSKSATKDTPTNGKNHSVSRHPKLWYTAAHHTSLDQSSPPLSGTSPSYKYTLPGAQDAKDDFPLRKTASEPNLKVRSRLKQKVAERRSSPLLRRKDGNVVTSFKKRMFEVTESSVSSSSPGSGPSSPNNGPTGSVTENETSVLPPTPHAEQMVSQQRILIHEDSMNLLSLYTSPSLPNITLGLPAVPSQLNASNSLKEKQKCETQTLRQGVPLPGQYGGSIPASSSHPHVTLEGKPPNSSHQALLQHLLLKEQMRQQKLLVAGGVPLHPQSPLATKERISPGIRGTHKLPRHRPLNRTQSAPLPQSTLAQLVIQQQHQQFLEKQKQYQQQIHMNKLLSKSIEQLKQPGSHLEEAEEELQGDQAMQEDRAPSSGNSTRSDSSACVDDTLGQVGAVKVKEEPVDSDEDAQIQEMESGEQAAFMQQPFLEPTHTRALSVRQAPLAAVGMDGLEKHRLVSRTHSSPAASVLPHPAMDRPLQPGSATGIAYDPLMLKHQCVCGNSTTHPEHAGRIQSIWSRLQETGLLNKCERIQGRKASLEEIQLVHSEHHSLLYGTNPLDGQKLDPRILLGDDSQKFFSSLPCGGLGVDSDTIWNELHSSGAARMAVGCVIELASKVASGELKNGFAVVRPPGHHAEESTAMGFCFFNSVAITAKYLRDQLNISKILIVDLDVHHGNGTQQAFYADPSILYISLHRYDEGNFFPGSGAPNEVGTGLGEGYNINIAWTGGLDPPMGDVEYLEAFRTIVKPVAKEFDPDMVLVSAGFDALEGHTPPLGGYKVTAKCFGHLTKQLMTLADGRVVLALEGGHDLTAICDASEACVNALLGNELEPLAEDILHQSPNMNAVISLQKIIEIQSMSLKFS

Histone deacetylase 5 = Histone deacetylase 5 (Homo sapiens, UniProt Q9UQL6); assay: Inhibition of recombinant human HDAC5 after 60 mins by fluorescence assay
Sequence of Histone deacetylase 5 (Q9UQL6 whole entry): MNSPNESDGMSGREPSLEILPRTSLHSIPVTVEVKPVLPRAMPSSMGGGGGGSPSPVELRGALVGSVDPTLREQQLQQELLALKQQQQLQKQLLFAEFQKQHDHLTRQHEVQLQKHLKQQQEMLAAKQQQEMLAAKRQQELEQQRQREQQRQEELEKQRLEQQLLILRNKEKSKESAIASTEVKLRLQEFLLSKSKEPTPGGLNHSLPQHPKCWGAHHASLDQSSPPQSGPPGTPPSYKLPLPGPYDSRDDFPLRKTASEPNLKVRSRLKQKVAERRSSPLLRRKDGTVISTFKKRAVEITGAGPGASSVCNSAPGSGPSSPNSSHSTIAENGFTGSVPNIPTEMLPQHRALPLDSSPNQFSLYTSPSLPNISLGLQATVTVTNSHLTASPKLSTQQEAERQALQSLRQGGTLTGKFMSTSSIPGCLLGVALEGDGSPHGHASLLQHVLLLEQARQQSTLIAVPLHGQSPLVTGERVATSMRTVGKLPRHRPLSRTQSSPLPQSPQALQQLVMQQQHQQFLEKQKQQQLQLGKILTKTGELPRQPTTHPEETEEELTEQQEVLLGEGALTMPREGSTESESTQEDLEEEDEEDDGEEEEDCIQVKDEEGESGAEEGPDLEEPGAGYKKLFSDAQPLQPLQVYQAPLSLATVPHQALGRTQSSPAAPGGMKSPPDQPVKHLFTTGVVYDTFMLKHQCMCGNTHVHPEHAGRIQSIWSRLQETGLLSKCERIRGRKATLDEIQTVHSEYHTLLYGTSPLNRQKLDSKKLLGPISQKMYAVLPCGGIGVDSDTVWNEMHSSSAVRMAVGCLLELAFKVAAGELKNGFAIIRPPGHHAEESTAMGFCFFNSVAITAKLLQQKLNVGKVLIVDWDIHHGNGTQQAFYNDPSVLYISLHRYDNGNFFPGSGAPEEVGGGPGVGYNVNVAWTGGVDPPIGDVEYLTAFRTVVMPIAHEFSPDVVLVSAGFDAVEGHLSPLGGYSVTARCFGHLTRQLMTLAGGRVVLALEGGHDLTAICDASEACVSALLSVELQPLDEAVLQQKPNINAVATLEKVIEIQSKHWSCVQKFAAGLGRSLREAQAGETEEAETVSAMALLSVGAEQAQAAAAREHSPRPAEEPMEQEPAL

[5] = target: T3, Protein deacetylase HDAC6 (Homo sapiens, UniProt Q9UBN7); assay: Inhibition of recombinant human HDAC6 after 60 mins by fluorescence assay
T3 sequence (Q9UBN7 whole entry): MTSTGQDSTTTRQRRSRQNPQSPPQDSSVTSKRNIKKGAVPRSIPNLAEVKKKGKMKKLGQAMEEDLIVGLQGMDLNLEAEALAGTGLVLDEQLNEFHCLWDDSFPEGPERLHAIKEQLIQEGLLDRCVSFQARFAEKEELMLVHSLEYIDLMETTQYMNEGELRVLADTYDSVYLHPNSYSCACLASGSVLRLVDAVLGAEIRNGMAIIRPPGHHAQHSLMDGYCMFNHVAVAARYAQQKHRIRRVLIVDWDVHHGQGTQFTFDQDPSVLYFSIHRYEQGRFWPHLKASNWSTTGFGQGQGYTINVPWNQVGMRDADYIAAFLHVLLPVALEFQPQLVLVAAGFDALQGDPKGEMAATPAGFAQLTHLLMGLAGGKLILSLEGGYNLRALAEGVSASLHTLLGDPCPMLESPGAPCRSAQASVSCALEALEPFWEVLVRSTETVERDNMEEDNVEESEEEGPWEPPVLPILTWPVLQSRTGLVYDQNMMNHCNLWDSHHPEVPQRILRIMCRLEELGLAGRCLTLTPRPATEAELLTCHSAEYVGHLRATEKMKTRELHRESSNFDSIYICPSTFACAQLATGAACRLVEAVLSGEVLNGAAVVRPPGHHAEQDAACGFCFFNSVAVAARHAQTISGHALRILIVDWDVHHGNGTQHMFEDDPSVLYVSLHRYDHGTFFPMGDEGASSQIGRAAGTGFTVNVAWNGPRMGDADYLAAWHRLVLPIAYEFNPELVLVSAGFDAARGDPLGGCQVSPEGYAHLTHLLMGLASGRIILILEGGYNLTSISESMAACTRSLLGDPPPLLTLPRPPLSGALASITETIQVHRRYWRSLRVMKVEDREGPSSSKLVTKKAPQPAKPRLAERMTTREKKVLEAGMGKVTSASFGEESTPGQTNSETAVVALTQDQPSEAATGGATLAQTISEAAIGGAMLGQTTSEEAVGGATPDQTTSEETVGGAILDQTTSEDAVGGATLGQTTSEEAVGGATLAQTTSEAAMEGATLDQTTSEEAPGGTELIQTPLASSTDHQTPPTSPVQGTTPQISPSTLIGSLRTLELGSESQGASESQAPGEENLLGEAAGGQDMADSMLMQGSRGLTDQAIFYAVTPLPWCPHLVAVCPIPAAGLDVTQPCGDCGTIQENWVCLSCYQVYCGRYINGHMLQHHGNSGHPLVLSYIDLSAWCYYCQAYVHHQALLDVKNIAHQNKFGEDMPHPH

Histone deacetylase 7 = target: T4, Histone deacetylase 7 (Homo sapiens, UniProt Q8WUI4); assay: Inhibition of recombinant human HDAC7 after 60 mins by fluorescence assay
T4 sequence (Q8WUI4 whole entry): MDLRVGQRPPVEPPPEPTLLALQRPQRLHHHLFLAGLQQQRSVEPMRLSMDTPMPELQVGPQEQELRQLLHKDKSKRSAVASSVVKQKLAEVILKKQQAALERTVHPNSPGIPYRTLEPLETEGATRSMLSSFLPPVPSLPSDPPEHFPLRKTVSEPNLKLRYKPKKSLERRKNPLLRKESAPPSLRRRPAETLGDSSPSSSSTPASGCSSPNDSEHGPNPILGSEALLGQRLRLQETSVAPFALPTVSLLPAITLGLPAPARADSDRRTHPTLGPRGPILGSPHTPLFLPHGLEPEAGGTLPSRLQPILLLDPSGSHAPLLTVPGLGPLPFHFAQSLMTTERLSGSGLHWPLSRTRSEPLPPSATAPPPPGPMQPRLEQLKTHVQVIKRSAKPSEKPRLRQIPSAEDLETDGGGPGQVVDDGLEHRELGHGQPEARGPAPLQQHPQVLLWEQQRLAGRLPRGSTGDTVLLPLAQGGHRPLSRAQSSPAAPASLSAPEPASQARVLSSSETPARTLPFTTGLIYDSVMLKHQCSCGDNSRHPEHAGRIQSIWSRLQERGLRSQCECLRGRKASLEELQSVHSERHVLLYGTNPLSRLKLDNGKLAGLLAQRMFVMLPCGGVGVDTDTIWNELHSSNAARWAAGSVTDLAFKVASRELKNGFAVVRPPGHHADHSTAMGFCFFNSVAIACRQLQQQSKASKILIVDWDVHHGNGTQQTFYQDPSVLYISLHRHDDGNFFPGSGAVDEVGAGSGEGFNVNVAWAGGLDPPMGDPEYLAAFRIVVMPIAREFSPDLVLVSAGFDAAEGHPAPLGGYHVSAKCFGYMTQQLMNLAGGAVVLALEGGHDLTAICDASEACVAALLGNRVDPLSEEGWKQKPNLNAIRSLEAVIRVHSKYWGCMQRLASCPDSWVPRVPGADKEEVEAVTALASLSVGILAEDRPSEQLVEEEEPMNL

Histone deacetylase 8 = target: T5, Histone deacetylase 8 (Homo sapiens, UniProt Q9BY41); assay: Inhibition of recombinant human HDAC8 after 60 mins by fluorescence assay
T5 sequence (Q9BY41 whole entry): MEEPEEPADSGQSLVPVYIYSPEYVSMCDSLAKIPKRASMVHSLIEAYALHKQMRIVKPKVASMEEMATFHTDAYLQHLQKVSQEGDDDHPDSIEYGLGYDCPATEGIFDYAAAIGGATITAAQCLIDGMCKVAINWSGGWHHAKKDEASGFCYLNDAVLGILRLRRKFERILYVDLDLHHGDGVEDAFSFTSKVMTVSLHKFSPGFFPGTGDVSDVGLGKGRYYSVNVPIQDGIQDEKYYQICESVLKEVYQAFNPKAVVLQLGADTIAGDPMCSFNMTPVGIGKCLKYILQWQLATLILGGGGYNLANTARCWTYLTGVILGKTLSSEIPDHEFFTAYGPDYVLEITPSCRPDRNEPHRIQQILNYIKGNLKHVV

Histone deacetylase 1 = Histone deacetylase 1 (Homo sapiens, UniProt Q13547); assay: Inhibition of recombinant human HDAC1 after 60 mins by fluorescence assay
Sequence of Histone deacetylase 1 (Q13547 whole entry): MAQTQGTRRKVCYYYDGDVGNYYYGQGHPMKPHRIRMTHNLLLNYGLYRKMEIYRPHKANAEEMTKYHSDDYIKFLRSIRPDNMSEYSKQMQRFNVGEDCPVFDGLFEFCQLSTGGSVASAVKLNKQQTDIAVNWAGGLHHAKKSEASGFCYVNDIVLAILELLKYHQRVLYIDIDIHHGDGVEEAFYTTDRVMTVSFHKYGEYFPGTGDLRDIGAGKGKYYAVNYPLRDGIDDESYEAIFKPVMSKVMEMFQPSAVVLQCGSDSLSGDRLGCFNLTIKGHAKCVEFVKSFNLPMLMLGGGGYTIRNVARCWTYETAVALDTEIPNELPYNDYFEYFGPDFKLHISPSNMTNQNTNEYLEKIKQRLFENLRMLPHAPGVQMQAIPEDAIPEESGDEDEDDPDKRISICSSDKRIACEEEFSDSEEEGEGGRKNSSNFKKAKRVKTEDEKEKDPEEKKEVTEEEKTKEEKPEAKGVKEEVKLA

GI50 (DU-145) [nM]	GI50 (U-937) [nM]	Structure (SMILES)	GI50 at 72 h [1] [nM]	GI50 at 72 h [2] [nM]	GI50 [3] [nM]	IC50 (Histone deacetylase 4) [nM]	IC50 [4] [nM]	IC50 (Histone deacetylase 2) [nM]	IC50 (Histone deacetylase 11) [nM]	IC50 (Histone deacetylase 9) [nM]	IC50 (Histone deacetylase 5) [nM]	IC50 [5] [nM]	IC50 (Histone deacetylase 7) [nM]	IC50 (Histone deacetylase 8) [nM]	GI50 (DU-145; Homo sapiens, DU-145, 72 h) [nM]	IC50 (Histone deacetylase 1) [nM]	GI50 ([3]; Homo sapiens, MOLT-4, 72 h) [nM]	GI50 (U-937; Homo sapiens, U-937, 72 h) [nM]
1590	1460	O=C(CCCCCCC(=O)Nc1ccccc1)NO [VORINOSTAT]	1650	6080	542													
		C/C=C1\NC(=O)C(CS)NC(=O)[C@@H](C(C)C)NC(=O)C[C@@H](/C=C/CCS)OC(=O)[C@H](C(C)C)NC1=O (single isomer, unassigned) [FR-135313]				9570	3.9	1.4	2360	> 10000	> 10000	149	1760	25				
		CCCCCCCC(=O)SCC/C=C/[C@@H]1CC(=O)NCc2nc(cs2)C2=N[C@@](C)(CS2)C(=O)N[C@@H](C(C)C)C(=O)O1 [LARGAZOLE]	39.7	82.5		> 10000	2210	1010	> 10000	> 10000	> 10000		> 10000	> 10000	11	69.8	16.2	16.8
		C/C=C1\NC(=O)[C@H]2CSSCC/C=C/[C@H](CC(=O)N[C@H](C(C)C)C(=O)N2)OC(=O)[C@H](C(C)C)NC1=O [ROMIDEPSIN]	4.89	5.39		> 10000	11		> 10000	> 10000	> 10000		> 10000			1050		
